# According to PubChem BioAssay (NCI):
#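 Here, GI50 denotes the concentration required for 50% inhibition of growth. Definition used: TGI = concentration required for complete inhibition of growth.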
# What was measured:
# Experiment in all cases: NCI-60 cell line screen, 384-well format
# [1] = system: U251 glioblastoma
# [2] = system: NCI-H322M lung
# [3] = system: HCT-116 colon
# [4] = system: RPMI-8226 leukemia
# [5] = system: OVCAR-3 ovarian
# [6] = system: HS 578T breast
# [7] = system: COLO 205 colon
# [8] = system: CAKI-1 renal
# [9] = system: CCRF-CEM leukemia
# [10] = system: NCI-H460 NSCLC
# [11] = system: SF-539 CNS
# [12] = system: A498 renal
# [13] = system: NCI/ADR-RES ovarian
# [14] = system: HCC-2998 colon
# [15] = system: TK-10 renal
# [16] = system: SK-MEL-28 melanoma
# [17] = system: SK-MEL-5 melanoma
# [18] = system: SK-OV-3 ovarian
# [19] = system: OVCAR-4 ovarian
# [20] = system: SF-295 CNS
# [21] = system: MDA-MB-435 melanoma
# [22] = system: LOX IMVI melanoma
# [23] = system: HCT-15 colon
# [24] = system: PC-3 prostate
# [25] = system: KM12 colon
# [26] = system: HOP-92 NSCLC
# [27] = system: NCI-H226 lung
# [28] = system: MOLT-4 leukemia
# [29] = system: HT29 colon
# [30] = system: EKVX NSCLC
# [31] = system: NCI-H23 lung
# [32] = system: A549 NSCLC
# [33] = system: OVCAR-8 ovarian
# [34] = system: SF-268 CNS
# [35] = system: SNB-75 CNS
# [36] = system: MDA-MB-231 breast
# [37] = system: OVCAR-5 ovarian
# [38] = system: SW-620 colon
# [39] = system: UO-31 renal
# [40] = system: MDA-MB-468 breast
# [41] = system: HOP-62 NSCLC
# [42] = system: SNB-19 CNS
# [43] = system: UACC-257 melanoma
# [44] = system: HL-60(TB) leukemia
# [45] = system: K-562 leukemia
# [46] = system: T-47D breast
# [47] = system: UACC-62 melanoma
# [48] = system: M14 melanoma
# [49] = system: SN12C renal
# [50] = system: 786-0 renal
# [51] = system: MCF7 breast
# [52] = system: ACHN renal
# [53] = system: IGROV1 ovarian
# [54] = system: NCI-H522 lung
# [55] = system: DU-145 prostate
# [56] = system: SK-MEL-2 melanoma
# [57] = system: SR leukemia
# [58] = system: RXF 393 renal
# [59] = system: MALME-3M melanoma
# [60] = system: BT-549 breast
smiles,measurement,setting,value
CC1(C)CC(=O)c2c(C(F)(F)F)nn(-c3ccc(C(N)=O)c(NC4CCC(OC(=O)CN)CC4)c3)c2C1 (stereo unspecified),GI50,[1],30.4 nM
same,TGI,[1],95.2 nM
same,GI50,[2],44.2 nM
same,TGI,[2],20800 nM
same,GI50,[3],41.4 nM
same,TGI,[3],13000 nM
same,GI50,[4],51.2 nM
same,TGI,[4],241 nM
same,GI50,[5],25.3 nM
same,TGI,[5],88.5 nM
same,GI50,[6],32.1 nM
same,TGI,[6],222 nM
same,GI50,[7],13.7 nM
same,TGI,[7],66.7 nM
same,GI50,[8],67.9 nM
same,TGI,[8],19600 nM
same,GI50,[9],18.9 nM
same,TGI,[9],53.3 nM
same,GI50,[10],22.1 nM
same,TGI,[10],57.3 nM
same,GI50,[11],18.6 nM
same,TGI,[11],43.1 nM
same,GI50,[12],67.2 nM
same,TGI,[12],15100 nM
same,GI50,[13],2350 nM
same,TGI,[13],6770 nM
same,GI50,[14],21.4 nM
same,TGI,[14],87.4 nM
same,GI50,[15],51 nM
same,TGI,[15],5310 nM
same,GI50,[16],46.5 nM
same,TGI,[16],19300 nM
same,GI50,[17],39.6 nM
same,TGI,[17],14000 nM
same,GI50,[18],41.5 nM
same,TGI,[18],29500 nM
same,GI50,[19],17100 nM
same,TGI,[19],> 100000 nM
same,GI50,[20],37.3 nM
same,TGI,[20],140 nM
same,GI50,[21],67.4 nM
same,TGI,[21],38100 nM
same,GI50,[22],17.4 nM
same,TGI,[22],33.6 nM
same,GI50,[23],88.8 nM
same,TGI,[23],14200 nM
same,GI50,[24],33.6 nM
same,TGI,[24],135 nM
same,GI50,[25],26.6 nM
same,TGI,[25],827 nM
same,GI50,[26],28.2 nM
same,TGI,[26],89.5 nM
same,GI50,[27],30.3 nM
same,TGI,[27],229 nM
same,GI50,[28],11.9 nM
same,TGI,[28],25.3 nM
same,GI50,[29],24.6 nM
same,TGI,[29],11500 nM
same,GI50,[30],83.1 nM
same,TGI,[30],15600 nM
same,GI50,[31],21.2 nM
same,TGI,[31],68.3 nM
same,GI50,[32],29 nM
same,TGI,[32],11000 nM
same,GI50,[33],21.9 nM
same,TGI,[33],48.2 nM
same,GI50,[34],12.2 nM
same,TGI,[34],36.5 nM
same,GI50,[35],112 nM
same,TGI,[35],506 nM
same,GI50,[36],22.7 nM
same,TGI,[36],71.7 nM
same,GI50,[37],53.6 nM
same,TGI,[37],30200 nM
same,GI50,[38],25.8 nM
same,TGI,[38],79.4 nM
same,GI50,[39],119 nM
same,TGI,[39],16300 nM
same,GI50,[40],21 nM
same,TGI,[40],47.6 nM
same,GI50,[41],41 nM
same,TGI,[41],20000 nM
same,GI50,[42],47.5 nM
same,TGI,[42],30000 nM
same,GI50,[43],52.8 nM
same,TGI,[43],21200 nM
same,GI50,[44],19.2 nM
same,TGI,[44],35.4 nM
same,GI50,[45],27.4 nM
same,TGI,[45],10200 nM
same,GI50,[46],19.5 nM
same,TGI,[46],65 nM
same,GI50,[47],29.7 nM
same,TGI,[47],129 nM
same,GI50,[48],31.4 nM
same,TGI,[48],12000 nM
same,GI50,[49],29.6 nM
same,TGI,[49],98.8 nM
same,GI50,[50],43.9 nM
same,TGI,[50],11700 nM
same,GI50,[51],25.4 nM
same,TGI,[51],843 nM
same,GI50,[52],62 nM
same,TGI,[52],18100 nM
same,GI50,[53],18.9 nM
same,TGI,[53],74.3 nM
same,GI50,[54],21.2 nM
same,TGI,[54],49.3 nM
same,GI50,[55],48.2 nM
same,TGI,[55],975 nM
CC(C)c1cc(-c2n[nH]c(=O)n2-c2ccc3c(ccn3C)c2)c(O)cc1O,GI50,[1],< 10 nM
same,TGI,[1],24.3 nM
same,GI50,[2],19.9 nM
same,TGI,[2],16200 nM
same,GI50,[3],18.8 nM
same,TGI,[3],10500 nM
same,GI50,[4],< 10 nM
same,TGI,[4],12.9 nM
same,GI50,[6],< 10 nM
same,TGI,[6],61.5 nM
same,GI50,[7],< 10 nM
same,TGI,[7],56.7 nM
same,GI50,[8],19.5 nM
same,TGI,[8],18000 nM
same,GI50,[9],< 10 nM
same,TGI,[9],15.2 nM
same,GI50,[10],< 10 nM
same,TGI,[10],< 10 nM
same,GI50,[11],< 10 nM
same,TGI,[11],< 10 nM
same,GI50,[12],26.1 nM
same,TGI,[12],17200 nM
same,GI50,[56],< 10 nM
same,TGI,[56],< 10 nM
same,GI50,[13],22.6 nM
same,TGI,[13],69.1 nM
same,GI50,[14],< 10 nM
same,TGI,[14],15.6 nM
same,GI50,[17],< 10 nM
same,TGI,[17],3690 nM
same,GI50,[57],< 10 nM
same,TGI,[57],< 10 nM
same,GI50,[18],12.3 nM
same,TGI,[18],2440 nM
same,GI50,[58],< 10 nM
same,TGI,[58],11500 nM
same,GI50,[19],< 10 nM
same,TGI,[19],> 100000 nM
same,GI50,[20],17 nM
same,TGI,[20],46.6 nM
same,GI50,[21],< 10 nM
same,TGI,[21],22600 nM
same,GI50,[22],< 10 nM
same,TGI,[22],20.7 nM
same,GI50,[23],< 10 nM
same,TGI,[23],13100 nM
same,GI50,[24],10.2 nM
same,TGI,[24],52.7 nM
same,GI50,[59],< 10 nM
same,TGI,[59],< 10 nM
same,GI50,[25],< 10 nM
same,TGI,[25],84.9 nM
same,GI50,[26],11.8 nM
same,TGI,[26],36.3 nM
same,GI50,[27],46.5 nM
same,TGI,[27],603 nM
same,GI50,[28],< 10 nM
same,TGI,[28],< 10 nM
same,GI50,[29],36.4 nM
same,TGI,[29],13400 nM
same,GI50,[30],11.8 nM
same,TGI,[30],76.3 nM
same,GI50,[31],< 10 nM
same,TGI,[31],23.8 nM
same,GI50,[32],< 10 nM
same,TGI,[32],14000 nM
same,GI50,[34],15.4 nM
same,TGI,[34],28400 nM
same,GI50,[35],< 10 nM
same,TGI,[35],46 nM
same,GI50,[36],19.1 nM
same,TGI,[36],72 nM
same,GI50,[37],21.8 nM
same,TGI,[37],13500 nM
same,GI50,[39],< 10 nM
same,TGI,[39],11800 nM
same,GI50,[40],< 10 nM
same,TGI,[40],< 10 nM
same,GI50,[42],13.4 nM
same,TGI,[42],74.5 nM
same,GI50,[43],42.4 nM
same,TGI,[43],22600 nM
same,GI50,[60],< 10 nM
same,TGI,[60],< 10 nM
same,GI50,[44],< 10 nM
same,TGI,[44],< 10 nM
same,GI50,[45],< 10 nM
same,TGI,[45],27 nM
same,GI50,[46],28.2 nM
same,TGI,[46],1570 nM
same,GI50,[47],< 10 nM
same,TGI,[47],31.6 nM
same,GI50,[48],< 10 nM
same,TGI,[48],2690 nM
same,GI50,[49],< 10 nM
same,TGI,[49],36.7 nM
same,GI50,[50],< 10 nM
same,TGI,[50],78.1 nM
same,GI50,[51],< 10 nM
same,TGI,[51],16400 nM
same,GI50,[52],< 10 nM
same,TGI,[52],> 100000 nM
same,GI50,[53],< 10 nM
same,TGI,[53],21.4 nM
same,GI50,[54],< 10 nM
same,TGI,[54],< 10 nM
